In patent US6995148B2, “Adenosine cyclic ketals: novel adenosine analogues for pharmacotherapy” (University of Pittsburgh, priority 2001, dated 2006):

Key:
A2A receptors = settings: cited from earlier work
anesthetized rat = assay: Hemodynamic effects (MABP and heart rate) of intravenous bolus in anesthetized rat; type: in vivo; settings: bolus injection of 0.2 mg/kg
Experimental: Preliminary experiments were conducted to evaluate the hemodynamic effects of nonamethonium ACK. Adult male Sprague-Dawley rats utilized in these studies were purchased from Charles River Laboratories (Wilmington, Mass.) and maintained in the University of Pittsburgh Animal Facility. Rats were provided free access to Prolab Isopro RMH 3000 rodent diet (PMI Nutritional Intl., Richmond, Ind.) a nd tap water. The rats weighed approximately 300 grams at the time of study.
Rats were anesthetized with Inactin (100 mg/kg, intraperitoneally or i.p.) and placed on a Deltaphase Isothermal Pad (Braintree Scientific, Inc.; Braintree, Mass.). Body temperature was monitored with a digital rectal probe thermometer (Physioltemp Instruments, Inc.; Clifton, N.J.) and maintained at 37° C. by adjusting a heat lamp above the animal. The trachea was cannulated with polyethylene (PE)- 240 to maintain airway patency, a PE-50 catheter was inserted into the left jugular vein and an intravenous infusion of 0.9% saline was initiated at 80 μl/min. A left carotid artery catheter (PE-50) was inserted and was connected to a digital blood pressure analyzer (Micro-Med; Louisville, Ky.) for continuous measurement of mean arterial blood pressure (MABP) and heart rate. The digital blood pressure analyzer was set to time-average MABP and heart rate at one-minute (slow speed) or two-second (high speed) intervals.
After a 30 minute post-operation rest period, the rats received bolus injections of either adenosine or nonamethonium ACK. Some rats were pretreated with a bolus of 1,3-dipropyl-p-sulfophenylxanthine (DPSPX, a well-characterized adenosine receptor antagonist) followed by a constant rate infusion of DPSPX at 0.15 mg/80 μl/min. It has previously been shown that this dosing regimen with DPSPX effectively blocks adenosine receptors in the rat in vivo.

[1] = test system: patients with acute anterior myocardial infarction; settings: three-hour intravenous infusion; cited from earlier work

| SMILES | affinity for A2A receptors (A2A receptors) | time to recovery of MABP (anesthetized rat) | time to recovery of heart rate (anesthetized rat) | reduction of MABP (anesthetized rat; FIG. 2A) [mm Hg] | reduction of heart rate (anesthetized rat; FIG. 2B) [beats per minute] | reduction of infarct size [1] [%] |
| --- | --- | --- | --- | --- | --- | --- |
| CCNC(=O)[C@H]1O[C@@H](n2cnc3c(N)nc(NCCc4ccc(CCC(=O)O)cc4)nc32)[C@H](O)[C@@H]1O [CGS 21680, 2-[4-[(2-carboxyethyl)phenyl]ethylamino]-5′-N-ethylcarboxamidoadenosine] | high affinity |  |  |  |  |  |
| Nc1ncnc2c1ncn2[C@@H]1O[C@H](CO)[C@@H](O)[C@H]1O [adenosine] |  | approximately 500 seconds | approximately 100 seconds | 76 | 158 | 66 |
